Experimental data taken from PMC8245786, “Comparative Studies on Multi-Component Pharmacokinetics of Polygonum multiflorum Thunb Extract After Oral Administration in Different Rat Models” (Frontiers in Pharmacology, 2021).
Read-outs that look alike come from different tables or passages of the source.

Legend:
NTCP = assay: Expression level of NTCP in rat liver (UHPLC-MS/MS signature peptide) and correlation with AUC; assay type: in vivo; conditions: before administration of AE-PM
Source text: (§1) The detection method for UGT1A1 and nine other transporter proteins in the liver was comprehensively investigated in our study (35).
An Agilent 1290 Infinity series UHPLC system coupled to an Agilent 6460 series MS/MS system (Agilent Technologies, Santa Clara, CA, United States) was applied to quantitate the signature peptides in ESI positive ionization mode. […] The sequence of characteristic peptides that corresponded to UGT1A1 and the other nine transporter proteins were based on our previous experiments and listed in Table 3 .
(§2) Total membrane protein was isolated (in triplicate) from liver tissue samples according to the Native Membrane Protein Extraction Kit protocol. Subsequently, protein concentrations were determined by the BCA Protein Assay Kit. 10 µl of 5 mg/ml (or lower concentration) of a hepatocyte membrane protein incubated with 20 µl of dithiothreitol (100 mM) and 50 µl of ammonium bicarbonate buffer (50 mM, pH 7.8). After incubation at 95°C for 5 min, 20 µl of iodoacetamide (20 mM) was added to the mixture, followed by incubation at 37°C for 20 min in the dark. To concentrate the samples, ice-cold methanol (0.5 ml), chloroform (0.2 ml), and water (0.2 ml) were added. […]

OATP1A4 = assay: Expression level of OATP1A4 in rat liver (UHPLC-MS/MS signature peptide) and correlation with AUC; assay type: in vivo; conditions: before administration of AE-PM
Experimental: as §1
(§3) The sequence of characteristic peptides that corresponded to UGT1A1 and the other nine transporter proteins were based on our previous experiments and listed in Table 3 .
as §2, with “added. After centrifugation at 4°C for 5 min at 16,000 g, the supernatant was discarded and the pellet was washed once with ice-cold methanol (0.25 ml) and resuspended with 40 µl of reconstitution solution (equal volume of 3% sodium deoxycholate (w/v) and 5 mM ammonium bicarbonate buffer). Finally, the protein sample was digested with 10 µl of trypsin. The protein-to-trypsin ratio was 25:1 (w/w).” for “added.”

OCT1 = assay: Expression level of OCT1 in rat liver (UHPLC-MS/MS signature peptide) and correlation with AUC; assay type: in vivo; conditions: before administration of AE-PM
Experimental: as §1, §3
as §2, with “added. After centrifugation at 4°C for 5 min at 16,000 g, the supernatant was discarded and the pellet was washed once with ice-cold methanol (0.25 ml) and resuspended with 40 µl of reconstitution solution (equal volume of 3% sodium deoxycholate (w/v) and 5 mM ammonium bicarbonate buffer). Finally, the protein sample was digested with 10 µl of trypsin. The protein-to-trypsin ratio was 25:1 (w/w).” for “added.”

UGT1A1 = assay: Expression level of UGT1A1 in rat liver (UHPLC-MS/MS signature peptide) and correlation with AUC; assay type: in vivo; conditions: before administration of AE-PM
Experimental: as §1, §3
as §2, with “added. After centrifugation at 4°C for 5 min at 16,000 g, the supernatant was discarded and the pellet was washed once with ice-cold methanol (0.25 ml) and resuspended with 40 µl of reconstitution solution (equal volume of 3% sodium deoxycholate (w/v) and 5 mM ammonium bicarbonate buffer). Finally, the protein sample was digested with 10 µl of trypsin. The protein-to-trypsin ratio was 25:1 (w/w).” for “added.”

[1] = Serum biochemistry in ANIT and CCl4 liver injury model rats; assay type: in vivo, rat; conditions: 24 h after model induction; before AE-PM
Experimental: Additionally, group 3 represented the CCl4-induced hepatocytes injury model, which was treated with pure CCl4 (5 ml/kg, s. c.) on day 0, 50% CCl4 (diluted in olive oil) (3 ml/kg, s. c.) on day 3, and 20% CCl4 (diluted in olive oil) (3 ml/kg, s. c.) on day 6. After 24 h, five rats selection for serum and liver collection from each of the three groups. Blood samples were collected in a coagulation tube, and were centrifuged at 4°C for 15 min (4,000 rpm), The resultant serum was used for the ALT, AST, TBIL, DBIL, TBA and ALP assays. Liver samples were dissected and stored at −80°C for further analysis, whereas the central part of the right large lobe of the liver was used for histological examination.

BSEP = assay: Expression level of BSEP in rat liver (UHPLC-MS/MS signature peptide) and correlation with AUC; assay type: in vivo; conditions: before administration of AE-PM
Experimental: as §1, §3
as §2, with “added. After centrifugation at 4°C for 5 min at 16,000 g, the supernatant was discarded and the pellet was washed once with ice-cold methanol (0.25 ml) and resuspended with 40 µl of reconstitution solution (equal volume of 3% sodium deoxycholate (w/v) and 5 mM ammonium bicarbonate buffer). Finally, the protein sample was digested with 10 µl of trypsin. The protein-to-trypsin ratio was 25:1 (w/w).” for “added.”

MDR1 = assay: Expression level of MDR1 in rat liver (UHPLC-MS/MS signature peptide) and correlation with AUC; assay type: in vivo; conditions: before administration of AE-PM
Experimental: as §1, §3
as §2, with “added. After centrifugation at 4°C for 5 min at 16,000 g, the supernatant was discarded and the pellet was washed once with ice-cold methanol (0.25 ml) and resuspended with 40 µl of reconstitution solution (equal volume of 3% sodium deoxycholate (w/v) and 5 mM ammonium bicarbonate buffer). Finally, the protein sample was digested with 10 µl of trypsin. The protein-to-trypsin ratio was 25:1 (w/w).” for “added.”

[2] = Pharmacokinetics of AE-PM components and their phase II metabolites in rat plasma after single oral administration (UHPLC-MS/MS, with and without sulfatase hydrolysis); conditions: for Tmax / t1/2z / AUC(0-inf) / CL/F / Cmax / MRT inf / Vd/F / half-life / Conversion into phase II metabolites: plasma; for CL/F: CLz/F; for MRT inf: MRT (0-∞); for Vd/F: Vz/F; for half-life: t1/2z; for Conversion into phase II metabolites: rats
Experimental: (§4) To explore the pharmacokinetic properties of PM following intragastric administration in rats, a rapid and sensitive method involving the use of UHPLC-MS/MS (Agilent 6460 series, Agilent Technologies, Santa Clara, CA, United States) was developed and validated for the simultaneous quantification of nine active components in rat plasma. The quantification was conducted in ESI negative ionization mode, and mass spectrometry conditions were set up as follows: capillary voltage of 3500 V; gas flow at 12 L/min; nebulizer of 40 psi; the gas temperature of 350°C; and delta EMV (−) of 400. A 10 µl extraction sample was injected into the column (Agilent SB-C18 column, 2.1 mm × 50 mm, 1.8 mm) and eluted at 0.4 ml/min with a gradient elution of water (with 0.1% v/v formic acid) (A) and acetonitrile (B) (0–1.5 min, 20–30% B; 1.5–3.5 min, 30–50% B; 3.five to four min, 50–55%B; 4–6.5 min, 55–85% B; 6.5–6.6 min, 85–20% B and re-equilibration for 3 min).
(§5) A 50 µl aliquot of blood plasma sample was placed in a centrifuge tube with 50 µl of puerarin (internal standard, IS) solution (1,000 ng/ml), followed by 150 µl methanol, which was mixed for 5 min. Then, the mixture was centrifuged for 10 min at 15,000 rpm (4°C), the supernatant was transferred to a clean centrifuge tube and dried with nitrogen gas at room temperature. The residue was resuspended in 100 µl of methanol, then centrifuged at 15,000 rpm (4°C, 10 min), and 10 µl of the supernatant was analyzed by UHPLC-MS/MS.
(§6) Additional plasma samples (50 µl) were enzymatically hydrolyzed with 50 µl of enzyme solution (65.86 mg of sulfatase, dissolved in 2 ml of sodium acetate buffer, pH 5.0) for phase II metabolite quantification, in accordance with our previous study ([Ding et al., 2012]; [Yi et al., 2018]). After being vortex mixed for 5 min, the mixture was incubated at 37°C for 30 min and returned to room temperature. Subsequently, the samples were processed as described above.
(§7) The remaining 21 rats of the three groups were treated with a single oral dose of AE-PM (50.4 g PM/kg). […] Blood was collected in heparinized tubes at 5, 15, 30, 45, 60, 120, 240, 360, 480, 720, 1,440, 2,880, and 4,320 min after administration. The blood samples were centrifuged at 5,000 rpm (4°C) for 7 min, and the supernatant plasma was harvested.
(§8) All data were presented as mean ± standard deviation (SD). A one-way analysis of variance (ANOVA) was used to compare the data between three groups. The differences were considered to be statistically significant when p < 0.05 and highly significant when the p-value was <0.01 or p < 0.001. Spearman rank correlation coefficient, calculated by bivariate correlation analysis was used to evaluate the correlation between AUC values and expression levels of metabolic enzyme and transporters. All statistical analyses were performed with the SPSS Statistics system (SPSS vision 21.0). Pharmacokinetic data analyses were performed using DAS 2.1.1 software (Mathematical Pharmacology Professional Committee of China, Shanghai, China).

[3] = rat, in vivo, po
Experimental: as §4, §5, §6, §7, §8

in vivo = conditions: rat, po, 50 g/kg; for MRT inf: MRT (0-∞); for MRT inf / Tmax: oral AE-PM 50 g/kg, plasma, n = 6
Experimental: as §4, §5, §6, §7, §8

[4] = CCl4 group rats, oral AE-PM 50 g/kg, n = 6
[5] = rat, po, 50 g/kg, ANIT group rats, oral AE-PM 50 g/kg, n = 6
[6] = rat, po, 50 g/kg, CCl4 group rats, oral AE-PM 50 g/kg, n = 6
[7] = rat, po, 50 g/kg, Normal group rats, oral AE-PM 50 g/kg, n = 6
[8] = rat, po, 50 g/kg, Tmax, Normal group rats, oral AE-PM 50 g/kg, n = 6

| Structure (SMILES) | Reduction of NTCP expression level compared with the control group (NTCP) [%] | AUC(0-inf) [2, 5] [ng·h/mL] | AUC(0-inf) [2, 6] [ng·h/mL] | AUC(0-inf) [2, 7] [ng·h/mL] | CL/F [2, 5] [mL/min/kg] | CL/F [2, 6] [mL/min/kg] | CL/F [2, 7] [mL/min/kg] | Cmax [2, 5] [ng/mL] | Cmax [2, 6] [ng/mL] | Cmax [2, 7] [ng/mL] | MRT inf [2, 5] [h] | MRT inf [2, 6] [h] | MRT inf [2, 7] [h] | Tmax [2, 8] [h] | Vd/F [2, 5] [L/kg] | Vd/F [2, 6] [L/kg] | Vd/F [2, 7] [L/kg] | half-life [2, 5] [h] | Conversion into phase II metabolites ([2]; oral AE-PM) | other results |
| --- | --- | --- | --- | --- | --- | --- | --- | --- | --- | --- | --- | --- | --- | --- | --- | --- | --- | --- | --- | --- |
| S=C=Nc1cccc2ccccc12 [ANIT, alpha-naphthylisothiocyanate] | 38.02 |  |  |  |  |  |  |  |  |  |  |  |  |  |  |  |  |  |  |  |
| ClC(Cl)(Cl)Cl [CCl4, Carbon tetrachloride] | 15.75 |  |  |  |  |  |  |  |  |  |  |  |  |  |  |  |  |  |  | Reduction of OATP1A4 expression level compared with the control group (OATP1A4): 46.11%; Reduction of OCT1 expression level compared with the control group (OCT1): 22.30%; Reduction of UGT1A1 expression level compared with the control group (UGT1A1): 31.18%; Increase of serum ALT compared with the control group [1]: 4.45 folds; Increase of serum AST compared with the control group [1]: 2.68 folds; Reduction of BSEP expression level compared with the control group (BSEP): 26.92%; Reduction of MDR1 expression level compared with the control group (MDR1): 34.15% |
| Cc1cc(O)c2c(c1)C(=O)c1cc(O)cc(O)c1C2=O [Emodin, emodin] |  | 1500 | 5970 | 3400 | 223 | 55.9 | 98.1 | 607 ± 29.9 | 6430 | 4100 | 22.8 ± 5.28 | 1.23 ± 0.681 | 6.09 ± 1.83 | 0.167 ± 0.059 | 75.5 ± 8.86 | 68.1 ± 6.03 | 31.3 ± 3.25 | 3.91 ± 0.821 | partially converted | Tmax [2, 4]: 0.25 ± 0.0659 h; t1/2z [2, 4]: 3.654 ± 0.267 h; t1/2z ([2]; Normal group rats, oral AE-PM 50 g/kg, n = 6): 3.681 ± 1.075 h; Tmax ([2]; rat, po, 50.4 g PM/kg, Tmax, different groups (normal, ANIT, CCl4), oral AE-PM): < 0.5 h; Decrease of AUC (0-∞) compared with the normal group [3]: 55.98%; Decrease of Cmax compared with the normal group [3]: 85.18%; Increase of AUC (0-∞) compared with the normal group [3]: 75.69%; Increase of Cmax compared with the normal group [3]: 57.02% |
| O=C(O)c1cc(O)c(O)c(O)c1 [Gallic acid, gallic acid] |  |  |  |  |  |  |  |  |  |  |  |  |  |  |  |  |  |  |  | MRT inf (in vivo; ANIT group rats): 55.7 ± 4.22 h; MRT inf (in vivo; CCl4 group rats): 3.06 ± 0.12 h; MRT inf (in vivo; Normal group rats): 12.8 ± 1.02 h; Tmax (in vivo; ANIT group rats): 0.75 ± 0.0231 h; Tmax (in vivo; CCl4 group rats): 0.25 ± 0.0641 h; Tmax (in vivo; Normal group rats): 0.25 ± 0.0728 h; Vd/F (in vivo; Vz/F): 205 ± 2.2 L/kg |
| OC[C@H]1O[C@@H](Oc2c(O)cc(O)cc2/C=C/c2ccc(O)cc2)[C@H](O)[C@@H](O)[C@@H]1O [TSG, 2,3,5,4'-tetrahydroxystilbene-2-O-β-D-glucoside] |  | 341000 | 116000 | 12900 | 0.983 | 2.87 | 25.9 | 99300 | 50600 | 15000 | 6.03 ± 1.93 | 3.4 ± 1.04 | 4.54 ± 1.23 | 0.25 ± 0.0293 | 0.221 ± 0.0206 | 0.698 ± 0.073 | 4.37 ± 0.711 | 2.61 ± 0.612 | partially converted | Increase of AUC (0-∞) compared with the normal group ([2]; ANIT model rats, oral AE-PM): 2,548.17%; Increase of Cmax compared with the normal group ([2]; ANIT model rats, oral AE-PM): 560.12%; Increase of AUC (0-∞) compared with the normal group ([2]; CCl4 model rats, oral AE-PM): 802.14%; Increase of Cmax compared with the normal group ([2]; CCl4 model rats, oral AE-PM): 236.59%; Tmax ([2]; rat, po, 50 g/kg, Tmax, ANIT group rats, oral AE-PM 50 g/kg, n = 6): 0.5 ± 0.0278 h; Tmax ([2]; rat, po, 50 g/kg, Tmax, CCl4 group rats, oral AE-PM 50 g/kg, n = 6): 0.75 ± 0.136 h; half-life [2, 6]: 2.81 ± 0.878 h; half-life [2, 7]: 1.95 ± 0.806 h |
